Assays:
[1] = tested on: Zea mays (ZEAMX); experiment: In vivo analyses Part A: drought stress, visual damage scoring, efficacy EF (ZEAMX); settings: spray application 25 g/ha, efficacy = reduction in damage intensity
Procedure: Seeds of monocotyledonous and dicotyledonous crop plants were sown in sandy loam in wood-fibre pots, covered with soil or sand and cultivated in a greenhouse under good growth conditions. The test plants were treated at the early leaf stage (BBCH10-BBCH13). To assure uniform water supply before commencement of stress, the potted plants were supplied with water by dam irrigation prior to substance application. The inventive compounds, formulated in the form of wettable powders (WP), were sprayed onto the green parts of the plants as an aqueous suspension at an equivalent water application rate of 600 I/ha with addition of 0.2% wetting agent (e.g. agrotin). Substance application was followed immediately by stress treatment of the plants. For this purpose, the pots were transferred in plastic inserts in order to prevent them from subsequently drying out too quickly. Drought stress was induced by gradual drying out under the following conditions: “Day”: 14 hours with illumination at 26° C. “Night”: 10 hours without illumination at 18° C. The duration of the respective stress phases was guided mainly by the condition of the stressed control plants. […] Once this juncture was reached, the intensities of damage were scored visually in comparison to untreated, unstressed controls of the same age. The damage intensity was at first assessed in percent. […]

[2] = tested on: Triticum aestivum (TRZAS); experiment: In vivo analyses Part A: drought stress, visual damage scoring, efficacy EF (TRZAS); settings: spray application 25 g/ha, efficacy = reduction in damage intensity
Procedure: (§1) Seeds of monocotyledonous and dicotyledonous crop plants were sown in sandy loam in wood-fibre pots, covered with soil or sand and cultivated in a greenhouse under good growth conditions. The test plants were treated at the early leaf stage (BBCH10-BBCH13). To assure uniform water supply before commencement of stress, the potted plants were supplied with water by dam irrigation prior to substance application. The inventive compounds, formulated in the form of wettable powders (WP), were sprayed onto the green parts of the plants as an aqueous suspension at an equivalent water application rate of 600 I/ha with addition of 0.2% wetting agent (e.g. agrotin). Substance application was followed immediately by stress treatment of the plants. For this purpose, the pots were transferred in plastic inserts in order to prevent them from subsequently drying out too quickly. Drought stress was induced by gradual drying out under the following conditions: “Day”: 14 hours with illumination at 26° C. “Night”: 10 hours without illumination at 18° C. The duration of the respective stress phases was guided mainly by the condition of the stressed control plants. It was ended (by re-irrigating and transfer to a greenhouse with good growth conditions) as soon as irreversible damage was observed on the stressed control plants. The end of the stress phase was followed by an about 4-7-day recovery phase, during which the plants were once again kept under good growth conditions in a greenhouse. The duration of the recovery phase was guided mainly by when the trial plants had attained a state which enabled visual scoring of potential effects, and was therefore variable. Once this juncture was reached, the intensities of damage were scored visually in comparison to untreated, unstressed controls of the same age. The damage intensity was at first assessed in percent. […]

[3] = tested on: Brassica napus (BRSNS); experiment: In vivo analyses Part A: drought stress, visual damage scoring, efficacy EF (BRSNS); settings: spray application 250 g/ha, efficacy = reduction in damage intensity
Procedure: as §1

CCOC(=O)/C=C(/C)C#CC(O)(c1ccccc1)C1(C#N)CC1 (stereo not drawn) [I.1-236, Ethyl (2Z)-6-(1-cyanocyclopropyl)-6-hydroxy-3-methyl-6-phenylhex-2-en-4-ynoate]
>5%: EF [%] (ZEAMX) [1] | EF [%] (TRZAS) [2] | EF [%] (BRSNS) [3]
